Structures are written as SMILES.

The nature of one data set: method code SF-AS, from DOI: 10.1248/cpb.39.458, PMID: 1829027. The following applies: pH 7.0.
`CC(=O)OCC1OC(n2cc(F)c(=O)[nH]c2=O)CC1OC(C)=O` (stereo not given): the logD (usually lipophilicity at a set pH, counting ionised and neutral species) was -0.34.

`CCCCCCCC(=O)OCC1OC(n2cc(F)c(=O)[nH]c2=O)CC1OC(=O)CCCCCCC` (stereo not given) displayed a logD of 6.05.

The compound `CCCCCC(=O)OCC1OC(n2cc(F)c(=O)[nH]c2=O)CC1OC(=O)CCCCC` (stereo not given) gave a logD of 4.25.

The compound `CCCCC(=O)OC[C@H]1O[C@@H](n2cc(F)c(=O)[nH]c2=O)C[C@@H]1OC(=O)CCCC` showed a log distribution coefficient (logD) of 2.72.

Another data set can be described thus: from Sparatore, F.; Grieco, C.; Silipo, C.; Vittoria, A. (1979). Use of regression analysis to correlate auxin activity with chemical physical and structural properties of benzotriazole derivatives. III. …. The following applies: pH 5.6.
As for `OCCCCn1nnc2ccccc21`, the logD was found to be 1.03.

`OCCCCCCn1nnc2ccccc21`: the logD was 1.71.

As for `OCCCCn1nc2ccccc2n1`, the logD came to 1.57.

As to `OCCCCCn1nc2ccccc2n1`, the logD was found to be 1.93.

The next data set can be described thus: method code SF-RC, from DOI: 10.1002/ps.2780410303. The following applies: pH 2.0.
With `CC(C)C1(C)N=C(c2ncc(S(C)(=O)=O)cc2C(=O)O)NC1=O` (stereo not given), the logD is -0.05.

The data set is the same for the next values; noted with them: pH 2.5.
`CC(C)C1(C)N=C(c2ncc(CO)cc2C(=O)O)NC1=O` (stereo not given) registered a logD of -0.21.

Staying with this data set, now noted: pH 2.8.
Take `CSc1cnc(C2=NC(C)(C(C)C)C(=O)N2)c(C(=O)O)c1` (stereo not given): the logD was determined as 0.75.

`CCCc1cnc(C2=NC(C)(C(C)C)C(=O)N2)c(C(=O)O)c1` (stereo not given) yielded a logD of 1.27.

Experiment in another data set: not given
Settings: not given
For the compound `CCCCCOC(=O)NCCN1CCOCC1`, the logP – broadly, the decadic logarithm of the partition coefficient of the neutral form, usually between octanol and water – is 2.8.

In turn, `CC1CN(CCNC(=O)OCCCCCC2CCSS2)CC(C)O1` (stereo not given) had a logP of 4.2.

For `O=C(NCCN1CCOCC1)OCCCCCC1CCSS1` (stereo not given), the logP was found to be 2.9.

In turn, `O=C(CCCCC1CCSS1)NCCN1CCOCC1` (stereo not given) came in with a log partition coefficient (logP) of 1.8.

The nature of the next data set: method code SF-AS, from DOI: 10.1023/a:1016392123137, PMID: 24272811. The following applies: pH 9.0.
`Nc1nc(-c2ccccn2)cc2ccccc12` came in with a logD of 2.74.

Take `c1ccc(-c2cc3ccccc3cn2)nc1`: the logD stood at 3.05.

The compound `Cc1cccc(-c2cc3ccccc3c(N)n2)n1` registered a logD of 3.18.

Regarding `Cc1cccc2cc(-c3ccccn3)nc(N)c12`, the logD is 3.05.

Experiment in another data set: not given
Settings: not given
The source holds these as a separate data set.
Consider `CCC1(c2ccccc2)C(=O)NC(=O)N=C1OC(C)C` (stereo not given), for which the logP was found to be 2.22.

In turn, `CCC1(CC)C(=O)NC(=O)N(C(C)C)C1=O` came in with a logP of 2.36. This logP and that of the compound before are within 0.2 log units of each other.

On to `CCC1(CC)C(=O)N=C(OC(C)C)NC1=O`, for which the logP turned out to be 1.44.

The compound `CCC1(c2ccccc2)C(=O)N=C(OC(C)C)NC1=O` (stereo not given) gave a logP of 1.79.

A further data set in a line: method code SF-AS, from DOI: 10.1135/cccc19881862. The following applies: pH 3.4.
`O=C(O)C(OCc1ccccc1)c1ccccc1` (stereo not given): the logD was determined as 2.

`COc1ccc(COC(C(=O)O)c2ccccc2)cc1Cl` (stereo not given) showed a logD of 2.45.

The data set is the same for the next values; noted with them: pH 3.5.
As to `O=C(O)CCCC(=O)c1ccc(-c2ccc(-c3ccccc3)cc2)cc1`, the logD came to 3.35.

Compound `O=C(O)CCC(=O)c1ccc(-c2ccc(-c3ccccc3)cc2)cc1` showed a logD of 3.2.

Experiment in the next data set: not given
Settings: not given
The source holds these as a separate data set.
For the compound `CC1(C)C(/C=C(\Cl)C(F)(F)F)C1C(=O)OC(C#N)c1cccc(Oc2ccccc2)c1` (stereo not given), the logP was 6.02.

`C#CCc1ccc(COC(=O)C2C(C=C(C)C)C2(C)C)o1` (stereo not given): the logP was determined as 6.67.

With `CC(=O)OC(c1ccc(Cl)c(Cl)c1)C(Cl)(Cl)Cl` (stereo not given), the logP turned out to be 4.92.

Experiment in the next data set: not given
Settings: not given
The source holds these as a separate data set.
With `CCOC(=O)OC[C@@H]1O[C@H](n2ccc(N)nc2=O)CS1`, the logP is -0.25.

In turn, `CCCOC(=O)OC[C@@H]1O[C@H](n2ccc(N)nc2=O)CS1` had a logP of 0.22.

In turn, `CCCCCOC(=O)OC[C@@H]1O[C@H](n2ccc(N)nc2=O)CS1` showed a logP of 1.2.

`CC(C)OC(=O)OC[C@@H]1O[C@H](n2ccc(N)nc2=O)CS1`: the logP worked out at 0.1.

A short description of the next data set: method code SF-GLC, from DOI: 10.1016/s0021-9673(01)83612-8. The following applies: pH 13.0.
`CC(N)CC1CCCCCCC1` (stereo not given) returned a logD of 3.7.

The compound `CNCCCCc1ccccc1` showed a logD of 2.76.

The compound `CN[C@H](C)[C@@H](OC)c1ccccc1` (relative stereo) came in with a logD of 1.87.

`NC1CCc2ccccc2C1` (stereo not given) had a logD of 2.08.

Experiment in the next data set: not given
Settings: not given
This is another data set of the same source.
`O=S(=O)(Nc1ccc(O)cc1)c1cc(Cl)cc(Cl)c1Cl` registered a logP of 4.18.

In turn, `O=S(=O)(Nc1ccccc1Cl)c1c(O)c(Cl)cc(Cl)c1Cl` yielded a logP of 3.97.

Turning to `O=S(=O)(Nc1cc(Cl)c(Cl)cc1Cl)c1c(O)c(Cl)cc(Cl)c1Cl`, the logP amounted to 4.36.

Compound `O=S(=O)(Nc1cc(Cl)c(Cl)cc1Cl)c1cc(Cl)cc(Cl)c1O` came in with a logP of 4.32.

A short description of the next data set: method code G-GLC, from DOI: 10.1021/je00036a027.
Settings: not given
As for `Clc1cccc(Cl)c1-c1ccccc1`, the logP was found to be 4.93.

As for `Clc1cc(Cl)c(-c2ccccc2)c(Cl)c1`, the logP turned out to be 5.47.

Consider `Clc1c(Cl)c(Cl)c(-c2ccccc2)c(Cl)c1Cl`, for which the logP came out at 6.3.

As to `Clc1cc(Cl)c(-c2ccccc2)cc1Cl`, the logP was determined as 5.51.

Experiment in another data set: not given
Settings: not given
This is another data set of the same source.
Regarding `CCc1c(-c2ccccc2)ssc1=S`, the logP was found to be 4.31.

On to `CC1(C)C2Cc3ssc(=S)c3C1C2` (stereo not given), for which the log partition coefficient (logP) amounted to 3.52.

In the case of `S=c1ssc2c1CCCCCCCCCC2`, the logP came to 5.8.

Take `S=c1ssc(Cc2ccccc2)c1-c1ccccc1`: the logP is 4.29.

A short description of another data set: method code SF, from DOI: 10.1016/j.bmc.2005.05.004, PMID: 15946850. The following applies: pH 7.4.
As to `[O-][n+]1onc(-c2ccc(OCCCc3c[nH]cn3)cc2)c1CO`, the logD came out at 1.83.

Consider `N#Cc1nonc1-c1ccc(OCCCc2c[nH]cn2)cc1`, for which the logD worked out at 3.04.

Take `N#Cc1c(-c2ccc(OCCCc3c[nH]cn3)cc2)no[n+]1[O-]`: the logD was determined as 2.99.

Take `OCc1nonc1-c1ccc(OCCCc2c[nH]cn2)cc1`: the logD is 1.96.

Experiment in the next data set: not given
Settings: not given
The source holds these as a separate data set.
For `O=C(NN(C(=O)c1ccc([N+](=O)[O-])cc1)c1ccccc1)c1ccc([N+](=O)[O-])cc1`, the logP is 4.18.

As to `COc1ccc(C(=O)NNC(=O)c2ccccc2)cc1`, the logP is 1.6.

`Cc1ccc(C(=O)NNC(=O)c2ccccc2)cc1` returned a logP of 1.88.

Take `O=C(NNC(=O)c1ccc([N+](=O)[O-])cc1)c1ccc([N+](=O)[O-])cc1`: the logP came out at 2.07.

Experiment in a further data set: not given
Settings: not given
The source holds these as a separate data set.
Compound `O=[N+]([O-])c1ccc2cccccc1-2` registered a logP of 2.59.

As to `NC(=O)Cc1ccc2cccccc1-2`, the logP stood at 2.48.

`CCOC(=O)c1ccc2cccccc1-2`: the logP came to 3.83.

Still in this data set, the particulars now being: pH 3.4.
Consider `O=C(O)c1ccc2cccccc1-2`, for which the logD turned out to be 2.88.

The next data set can be described thus: method code SF, from DOI: 10.1021/jm061062o.s001, PMID: 17326614. The following applies: pH 7.4.
In the case of `CS(=O)(=O)CCN(CCS(C)(=O)=O)c1cc(C(N)=O)c([N+](=O)[O-])cc1[N+](=O)[O-]`, the logD is -0.7.

For `CS(=O)(=O)c1cc([N+](=O)[O-])c(C(N)=O)cc1N(CCBr)CCBr`, the logD stood at 1.18.

As for `CS(=O)(=O)CCN(CCI)c1cc(C(N)=O)c([N+](=O)[O-])cc1[N+](=O)[O-]`, the logD was determined as 0.74.

The compound `CS(=O)(=O)CCN(CCCl)c1cc(C(N)=O)c([N+](=O)[O-])cc1[N+](=O)[O-]` had a logD of 0.42.

Experiment in a further data set: not given
Settings: not given
The source holds these as a separate data set.
`CS(=O)(=O)NCCN1CCc2cccc(Cl)c2CC1`: the logP came out at 2.51.

`CCCN1CCc2cccc(Cl)c2CC1` showed a logP of 3.5.

`COCCN1CCc2cccc(Cl)c2CC1`: the logP is 3.

Consider `Clc1cccc2c1CCNCC2`, for which the logP was 2.4.

Experiment in another data set: not given
Settings: not given
The source holds these as a separate data set.
For the compound `Cc1ncc2c(c1O)COC2c1ccc(Cl)cc1` (stereo not given), the logP came to 2.34.

Consider `CC(C)(C)c1ccc(C(O)CCCN2CCC(C(O)c3ccccc3)CC2)cc1` (stereo not given), for which the logP was 4.06.

The compound `Cc1ccc(Cc2cnc(NCCCCc3ncc(Br)cc3C)[nH]c2=O)cn1` gave a logP of 3.19.

Take `O=C(CCCN1CCC(C(O)(c2ccccc2)c2ccccc2)CC1)c1ccccc1`: the logP is 4.42.

A further data set in a line: from Wadhwa, L.; Chandiran, S.; Sharma, P. (2004). Alkyl esters of 6-methoxy-2-naphthylacetic acid as potential prodrugs - Synthesis, physicochemical properties, chemical stability and enzymatic …. The following applies: pH 7.4.
Regarding `COc1ccc2cc(CC(=O)OCC(C)C)ccc2c1`, the logD amounted to 4.71.

Regarding `COc1ccc2cc(CC(=O)OC(C)C)ccc2c1`, the logD worked out at 4.

The next data set in a line: method code SF-HPLC, from DOI: 10.1002/ps.2780310207.
Settings: not given
For `Fc1ccc(C2(Cn3cncn3)CCC2)cc1`, the logP was 1.93.

`Clc1ccc(C2(Cn3cncn3)CC2)cc1` returned a logP of 2.21.

For the compound `CC(C)(Cn1cncn1)c1ccc(F)cc1`, the logP stood at 1.74.

As for `Clc1ccc(C2(Cn3cncn3)CCC2)cc1`, the logP came out at 2.13.

Experiment in another data set: not given
Settings: not given
The source holds these as a separate data set.
The compound `CCNCc1ccc(C)cc1` came in with a logP of 2.38.

With `CCCCCCCNCc1ccc(C)cc1`, the logP amounted to 5.12.

As to `CCCCCCNCc1ccc(C)cc1`, the logP amounted to 4.96. This logP and that of the compound before are within 0.2 log units of each other.

As for `CCCCNCc1ccc(C)cc1`, the logP came to 3.49.

Source of the values: the SangsterLogP compilation.
